Data from patent publication US12600714B2, “Substituted pyrazinecarboxamide compounds for treating diseases related to EGFR mutation” (WIGEN BIOMEDICINE TECHNOLOGY (SHANGHAI) CO., LTD., priority 2020, dated 2026).

Experiments:
[1] = target: Ba/F3 (EGFR^del19/T790M/C797S) triple-mutant cells (Homo sapiens, UniProt P00533, T790M/C797S, cells depend on it, form not given); assay: Antiproliferative activity against Ba/F3 (EGFR del19/T790M/C797S) triple-mutant cells, Cell Titer Glow; type: cell-based; details: three days after addition of compounds; read-out: Antiproliferative activity BaF3(EGFR^del19/T790M/C797S) IC50
Description: (§1) Antiproliferative Activity of the Compounds Disclosed Herein Against Ba/F3 (EGFR^del19/T790M/C797S) Triple-Mutant Cells and A431 (EGFR WT) Cells
(§2) • 3000 Ba/F3 cells carrying EGFR (del19/T790M/C797S) or 2000 A431 cells were seeded in a 384-well plate. After one day, serially diluted compounds were added (up to 500 nM for Ba/F3 cells and up to 10 μM for A431 cells). Three days after the addition of the compounds, Cell Titer Glow was added to evaluate cell growth and the percentage cell growth inhibition by the compounds and the IC50 values were calculated.

EGFR (L858R/T790M/C797S) = EGFR (L858R/T790M/C797S) (Homo sapiens, UniProt P00533, C797S/L858R/T790M); assay: HTRF inhibitory activity assay against EGFR (L858R/T790M/C797S) enzyme; type: biochemical; details: read-out: EGFR (L858R/T790M/C797S) inhibition (%) (0.3 nM compound)
Description: (§3) Inhibitory Activity Assay of the Compounds Disclosed Herein Against EGFR (del19/T790M/C797S), EGFR (L858R/T790M/C797S) or EGFR (WT) Enzymes
(§4) The inhibitory effects of the compounds against EGFR (del19/T790M/C797S), EGFR (L858R/T790M/C797S) or EGFR (WT) enzyme activity was determined by using HTRF. The procedures are as follows:
(§5) The WT or mutant EGFR proteins were incubated with a serially diluted compounds at 28° C. for 10 min followed by addition of biotin-labeled general tyrosine kinase (TK) substrate and ATP. The mixture was incubated at room temperature for 40 min for reaction. After the termination of the reaction, an Eu3+-Cryptate-labeled antibody against TK and streptavidin-XL665 were added and the mixture was incubated at room temperature for 60 min. The luminescences at 615 nm and 665 nm were detected and the ratio of 665/615 was calculated to quantify the level of TK substrate phosphorylation. Inhibition % and IC50 of the compounds were calculated relative to the control group.

EGFR (del19/T790M/C797S) = assay: HTRF inhibitory activity assay against EGFR (del19/T790M/C797S) enzyme; type: biochemical
Outline: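 Wild-type or mutant EGFR preincubated with serially diluted compound 10 min at 28 °C, then reacted 40 min at room temperature with biotinylated TK substrate and ATP. Phosphorylation detected by HTRF (Eu-cryptate anti-TK antibody, streptavidin-XL665, 60 min), 665/615 nm ratio; % inhibition and IC50 vs control.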

EGFR (WT) = EGFR (WT) (Homo sapiens, UniProt P00533); assay: HTRF inhibitory activity assay against EGFR (WT) enzyme; type: biochemical
Description: as §3, §4, §5

A431 (EGFR WT) cells = assay: Antiproliferative activity against A431 (EGFR WT) cells, Cell Titer Glow; type: cell-based; details: Homo sapiens, A-431, 72 h; three days after addition of compounds; read-out: Antiproliferative activity A431 wild-type (WT) IC50
Description: as §1, §2

Sequence of EGFR (L858R/T790M/C797S) (P00533 25-1210 T790M/C797S/L858R): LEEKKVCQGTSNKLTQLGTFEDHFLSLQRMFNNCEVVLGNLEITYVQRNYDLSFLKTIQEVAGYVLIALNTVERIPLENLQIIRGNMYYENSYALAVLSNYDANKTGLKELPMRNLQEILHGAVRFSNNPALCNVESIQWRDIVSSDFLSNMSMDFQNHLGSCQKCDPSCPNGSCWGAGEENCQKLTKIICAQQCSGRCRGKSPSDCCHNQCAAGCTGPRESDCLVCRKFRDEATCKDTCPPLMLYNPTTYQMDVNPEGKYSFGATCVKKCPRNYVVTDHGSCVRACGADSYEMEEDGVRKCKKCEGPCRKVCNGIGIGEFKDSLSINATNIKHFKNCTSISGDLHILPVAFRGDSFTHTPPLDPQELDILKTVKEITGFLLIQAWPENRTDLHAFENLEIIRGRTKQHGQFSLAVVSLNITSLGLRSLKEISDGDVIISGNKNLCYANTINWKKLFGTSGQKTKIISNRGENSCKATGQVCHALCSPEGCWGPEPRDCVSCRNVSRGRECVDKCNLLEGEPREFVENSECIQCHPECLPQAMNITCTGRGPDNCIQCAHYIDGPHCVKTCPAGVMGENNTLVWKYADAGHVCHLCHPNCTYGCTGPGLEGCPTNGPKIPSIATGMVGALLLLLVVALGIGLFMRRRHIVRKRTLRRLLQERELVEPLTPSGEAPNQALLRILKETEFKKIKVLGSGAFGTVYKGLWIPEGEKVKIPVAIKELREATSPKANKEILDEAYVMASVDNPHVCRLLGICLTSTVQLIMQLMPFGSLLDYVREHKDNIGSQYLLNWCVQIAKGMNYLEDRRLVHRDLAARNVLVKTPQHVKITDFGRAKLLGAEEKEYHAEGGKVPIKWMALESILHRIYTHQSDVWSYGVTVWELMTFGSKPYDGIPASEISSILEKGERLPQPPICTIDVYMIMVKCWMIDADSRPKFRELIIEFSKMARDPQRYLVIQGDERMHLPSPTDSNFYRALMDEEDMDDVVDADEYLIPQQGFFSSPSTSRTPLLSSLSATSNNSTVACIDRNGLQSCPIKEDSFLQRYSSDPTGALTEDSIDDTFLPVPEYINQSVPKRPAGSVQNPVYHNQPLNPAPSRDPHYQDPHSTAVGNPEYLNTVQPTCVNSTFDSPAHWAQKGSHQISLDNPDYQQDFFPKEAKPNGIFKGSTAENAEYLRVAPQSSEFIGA
Sequence of EGFR (WT) (P00533 25-1210): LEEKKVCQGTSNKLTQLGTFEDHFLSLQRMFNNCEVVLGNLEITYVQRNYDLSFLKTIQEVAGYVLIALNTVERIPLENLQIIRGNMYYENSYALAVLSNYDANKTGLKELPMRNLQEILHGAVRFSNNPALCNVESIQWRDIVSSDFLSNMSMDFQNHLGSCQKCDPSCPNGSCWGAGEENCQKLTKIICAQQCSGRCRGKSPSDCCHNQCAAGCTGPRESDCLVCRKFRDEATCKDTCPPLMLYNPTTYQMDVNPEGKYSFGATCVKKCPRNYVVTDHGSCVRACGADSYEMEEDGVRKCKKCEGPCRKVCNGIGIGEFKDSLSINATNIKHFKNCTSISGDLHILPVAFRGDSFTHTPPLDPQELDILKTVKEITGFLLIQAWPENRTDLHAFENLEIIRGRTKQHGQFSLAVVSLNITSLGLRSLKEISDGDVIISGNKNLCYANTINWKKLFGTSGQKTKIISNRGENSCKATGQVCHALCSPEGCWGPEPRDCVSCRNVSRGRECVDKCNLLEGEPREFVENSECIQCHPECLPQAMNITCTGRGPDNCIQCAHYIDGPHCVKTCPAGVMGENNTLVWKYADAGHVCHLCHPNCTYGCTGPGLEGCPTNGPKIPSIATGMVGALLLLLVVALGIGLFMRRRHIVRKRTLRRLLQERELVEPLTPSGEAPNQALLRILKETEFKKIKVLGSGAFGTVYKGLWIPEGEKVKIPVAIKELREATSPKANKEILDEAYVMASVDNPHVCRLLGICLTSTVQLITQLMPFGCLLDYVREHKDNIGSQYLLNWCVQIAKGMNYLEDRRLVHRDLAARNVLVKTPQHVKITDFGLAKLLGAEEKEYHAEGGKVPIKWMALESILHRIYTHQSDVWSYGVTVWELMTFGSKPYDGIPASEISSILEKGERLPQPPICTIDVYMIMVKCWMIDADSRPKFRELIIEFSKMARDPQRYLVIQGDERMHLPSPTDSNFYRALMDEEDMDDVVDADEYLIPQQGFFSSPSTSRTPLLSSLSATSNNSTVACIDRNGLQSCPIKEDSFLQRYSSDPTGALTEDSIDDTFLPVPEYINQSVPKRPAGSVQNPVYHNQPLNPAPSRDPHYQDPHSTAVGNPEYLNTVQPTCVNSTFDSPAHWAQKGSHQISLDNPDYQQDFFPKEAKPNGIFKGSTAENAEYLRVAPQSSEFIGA
Sequence of Ba/F3 (EGFR^del19/T790M/C797S) triple-mutant cells (P00533 with tags, fused parts or gaps DEL746-750/T790M/C797S, form open): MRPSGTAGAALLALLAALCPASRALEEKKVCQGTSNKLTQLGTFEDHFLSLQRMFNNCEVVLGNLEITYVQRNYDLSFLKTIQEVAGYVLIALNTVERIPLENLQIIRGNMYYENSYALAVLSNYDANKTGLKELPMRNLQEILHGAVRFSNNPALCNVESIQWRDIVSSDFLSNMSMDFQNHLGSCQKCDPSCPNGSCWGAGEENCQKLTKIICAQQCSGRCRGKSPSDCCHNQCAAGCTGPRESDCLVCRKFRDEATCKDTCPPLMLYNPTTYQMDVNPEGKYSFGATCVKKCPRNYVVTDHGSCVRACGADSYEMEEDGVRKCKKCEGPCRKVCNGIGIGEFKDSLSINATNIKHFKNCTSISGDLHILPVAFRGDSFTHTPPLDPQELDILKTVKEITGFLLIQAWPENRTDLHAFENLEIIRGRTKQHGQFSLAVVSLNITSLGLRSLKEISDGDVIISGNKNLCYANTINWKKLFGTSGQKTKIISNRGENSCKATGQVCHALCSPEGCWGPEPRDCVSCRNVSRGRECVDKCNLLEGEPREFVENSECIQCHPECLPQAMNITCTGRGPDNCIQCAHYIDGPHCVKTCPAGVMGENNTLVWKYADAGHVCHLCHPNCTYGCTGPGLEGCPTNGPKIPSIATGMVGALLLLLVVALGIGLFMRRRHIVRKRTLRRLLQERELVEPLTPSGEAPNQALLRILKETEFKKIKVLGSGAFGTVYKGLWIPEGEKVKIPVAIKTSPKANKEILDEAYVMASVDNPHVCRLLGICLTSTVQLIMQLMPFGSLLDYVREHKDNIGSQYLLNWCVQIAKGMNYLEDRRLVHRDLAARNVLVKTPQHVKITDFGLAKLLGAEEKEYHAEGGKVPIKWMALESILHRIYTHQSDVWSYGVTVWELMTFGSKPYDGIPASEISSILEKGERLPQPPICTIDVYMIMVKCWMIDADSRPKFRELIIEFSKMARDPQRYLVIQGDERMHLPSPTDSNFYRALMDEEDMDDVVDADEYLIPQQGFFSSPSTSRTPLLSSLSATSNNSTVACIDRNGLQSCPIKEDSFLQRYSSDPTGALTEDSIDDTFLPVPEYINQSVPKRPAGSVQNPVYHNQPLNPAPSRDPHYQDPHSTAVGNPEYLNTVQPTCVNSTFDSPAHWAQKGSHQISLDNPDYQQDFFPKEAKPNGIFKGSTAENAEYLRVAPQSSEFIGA

| GI50 [1] [nM] | inhibition at 0.0003 µM (EGFR (L858R/T790M/C797S)) [%] | IC50 (EGFR (WT)) [nM] | IC50 (A431 (EGFR WT) cells) [nM] | Structure (SMILES) | EGFR (del19/T790M/C797S) inhibition (%) (0.3 nM compound) (EGFR (del19/T790M/C797S)) |
| --- | --- | --- | --- | --- | --- |
| > 500 | ≤ 20 | – | – | CCc1nc(C(N)=O)c(Nc2ccc(N3CCC(N4CCN(C)CC4)CC3)c(OC)c2)nc1NC1CCOCC1 [Gilteritinib, gilteritinib, reference compound] | – |
| 197 | – | > 300 | 1300 | CNc1nc(Nc2ccc(N3CCC(N4CCN(C)CC4)CC3)cc2)c(C(N)=O)nc1-c1ccccc1 [compound 13] | + (+ indicates an inhibition less than or equal to 20%) |
| 113 | – | > 300 | 950 | CC(C)Oc1nc(Nc2ccc(N3CCC(N4CCN(C)CC4)CC3)cc2)c(C(N)=O)nc1-c1ccccc1 [compound 14] | + (+ indicates an inhibition less than or equal to 20%) |
| 48 | – | > 300 | 520 | CN1CCN(C2CCN(c3ccc(Nc4nc(NCC(C)(C)O)c(-c5ccccc5)nc4C(N)=O)cc3)CC2)CC1 [compound 21] | ++ (++ indicates an inhibition from 20% to 50%) |
| 36 | ≤ 20 | – | 950 | CN1CCN(C2CCN(c3ccc(Nc4nc(N[C@H]5CC[C@H](O)CC5)c(-c5ccccc5)nc4C(N)=O)cc3)CC2)CC1 [compound 23] | ++ (++ indicates an inhibition from 20% to 50%) |
| – | – | > 300 | – | CN1CCN(C2CCN(c3ccc(Nc4nc(NC5CCOCC5)c(-c5ccccc5C#N)nc4C(N)=O)cc3)CC2)CC1 [compound 52] | +++ (+++ indicates an inhibition greater than 50%.) |
| – | ≤ 20 | – | – | CN1CCN(C2CCN(c3ccc(Nc4nc(NC5CCOCC5)c(-c5cccc(F)c5)nc4C(N)=O)cc3)CC2)CC1 [compound 60] | ++ (++ indicates an inhibition from 20% to 50%) |
| 233 | 20 to 50 | – | 750 | COc1ccncc1-c1nc(C(N)=O)c(Nc2ccc(N3CCC(N4CCN(C)CC4)CC3)cc2)nc1NC1CCOCC1 [compound 83] | ++ (++ indicates an inhibition from 20% to 50%) |
| – | ≤ 20 | – | – | CN1CCN(C2CCN(c3ccc(Nc4nc(NC5CCOCC5)c(-c5cccs5)nc4C(N)=O)cc3)CC2)CC1 [compound 94] | ++ (++ indicates an inhibition from 20% to 50%) |
| 99 | 20 to 50 | – | 650 | CO[C@H]1C[C@H](Nc2nc(Nc3ccc(N4CCC(N5CCN(C)CC5)CC4)cc3)c(C(N)=O)nc2-c2ccccc2)C1 [compound 125] | ++ (++ indicates an inhibition from 20% to 50%) |
| – | > 50 | – | – | CN1CCN(C2CCN(c3ccc(Nc4nc(NC5CCOCC5)c(-c5cccc6[nH]ccc56)nc4C(N)=O)cc3F)CC2)CC1 [compound 519] | +++ (+++ indicates an inhibition greater than 50%.) |
| – | > 50 | – | – | CN1CCN(C2CCN(c3ccc(Nc4nc(NC5CCC5)c(-c5cccc6[nH]ccc56)nc4C(N)=O)cc3)CC2)CC1 [compound 523] | +++ (+++ indicates an inhibition greater than 50%.) |
| 18 | – | – | 50 | CN1CCN(C2CCN(c3ccc(Nc4nc(N[C@@H]5CCC[C@@H]5O)c(-c5cccc6[nH]ccc56)nc4C(N)=O)cc3)CC2)CC1 [compound 529] | +++ (+++ indicates an inhibition greater than 50%.) |
| – | > 50 | – | – | CN1CCN(C2CCN(c3ccc(Nc4nc(NC5CCC5)c(-c5cccc6[nH]ccc56)nc4C(N)=O)cc3F)CC2)CC1 [compound 532] | +++ (+++ indicates an inhibition greater than 50%.) |
| 13 | > 50 | – | 70 | CN1CCN(C2CCN(c3ccc(Nc4nc(NC5COC5)c(-c5cccc6[nH]ccc56)nc4C(N)=O)cc3)CC2)CC1 [compound 594] | +++ (+++ indicates an inhibition greater than 50%.) |
| 21 | – | – | 360 | CC(C)Nc1nc(Nc2ccc(N3CCC(N4CCN(C)CC4)CC3)cc2)c(C(N)=O)nc1-c1ccncc1 [compound 611] | +++ (+++ indicates an inhibition greater than 50%.) |

The next lines start with the molecule.

| Structure (SMILES) | GI50 [1] [nM] | inhibition at 0.0003 µM (EGFR (L858R/T790M/C797S)) [%] | IC50 (EGFR (WT)) [nM] | IC50 (A431 (EGFR WT) cells) [nM] | EGFR (del19/T790M/C797S) inhibition (%) (0.3 nM compound) (EGFR (del19/T790M/C797S)) |
| --- | --- | --- | --- | --- | --- |
| CN1CCN(C2CCN(c3ccc(Nc4nc(O[C@H]5CCN(C)C5)c(-c5ccccc5)nc4C(N)=O)cc3)CC2)CC1 [compound 2] | – | – | > 100 | – | + (+ indicates an inhibition less than or equal to 20%) |
| CN1CCN(C2CCN(c3ccc(Nc4nc(N(C)C)c(-c5ccccc5)nc4C(N)=O)cc3)CC2)CC1 [compound 10] | – | – | > 300 | – | ++ (++ indicates an inhibition from 20% to 50%) |
| CC(C)Nc1nc(Nc2ccc(N3CCC(N4CCN(C)CC4)CC3)cc2)c(C(N)=O)nc1-c1ccccc1 [compound 11] | 107 | – | > 300 | 540 | ++ (++ indicates an inhibition from 20% to 50%) |
| COC1CCC(Nc2nc(Nc3ccc(N4CCC(N5CCN(C)CC5)CC4)cc3)c(C(N)=O)nc2-c2ccccc2)C1 (stereo not shown) [compound 35] | 54 | ≤ 20 | – | 480 | ++ (++ indicates an inhibition from 20% to 50%) |
| CN1CCN(C2CCN(c3ccc(Nc4nc(NC5CCOCC5)c(-c5ccccn5)nc4C(N)=O)cc3)CC2)CC1 [compound 38] | 48 | 20 to 50 | – | 1800 | – |
| CN1CCN(C2CCN(c3ccc(Nc4nc(NC5CCOCC5)c(-c5ccco5)nc4C(N)=O)cc3)CC2)CC1 [compound 69] | – | ≤ 20 | – | – | + (+ indicates an inhibition less than or equal to 20%) |
| Cc1cc(Nc2nc(NC3CCOCC3)c(-c3ccncc3)nc2C(N)=O)ccc1N1CCC(N2CCN(C)CC2)CC1 [compound 114] | 27 | > 50 | – | 970 | ++ (++ indicates an inhibition from 20% to 50%) |
| CN1CCC(c2ccc(Nc3nc(NC4CCOCC4)c(-c4ccncc4)nc3C(N)=O)cc2)CC1 [compound 121] | 70 | > 50 | – | 590 | +++ (+++ indicates an inhibition greater than 50%.) |
| CN1CCN(C2CCN(c3ccc(Nc4nc(NC5CS(=O)(=O)C5)c(-c5ccccc5)nc4C(N)=O)cc3)CC2)CC1 [compound 126] | 248 | ≤ 20 | – | 2600 | + (+ indicates an inhibition less than or equal to 20%) |
| CN1CCN(C2CCN(c3ccc(Nc4nc(N[C@@H]5CC[C@@H](O)C5)c(-c5ccccc5)nc4C(N)=O)cc3)CC2)CC1 [compound 137, 5-(((1R,3R)-3-hydroxycyclopentyl)amino)-3-((4-(4-(4-methylpiperazin-1-yl)piperidin-1-yl)phenyl)amino)-6-phenylpyrazine-2-carboxamide] | – | 20 to 50 | – | – | ++ (++ indicates an inhibition from 20% to 50%) |
| CN1CCN(C2CCN(c3ccc(Nc4nc(NC5CCCC5)c(-c5cccc6[nH]ccc56)nc4C(N)=O)cc3)CC2)CC1 [compound 524] | – | > 50 | – | – | +++ (+++ indicates an inhibition greater than 50%.) |
| CN1CCN(C2CCN(c3ccc(Nc4nc(N[C@H]5CC[C@H](O)CC5)c(-c5cccc6[nH]ccc56)nc4C(N)=O)cc3F)CC2)CC1 [compound 535] | – | > 50 | – | – | +++ (+++ indicates an inhibition greater than 50%.) |
| CN1CCN(C2CCN(c3ccc(Nc4nc(NC5CC6(COC6)C5)c(-c5cccc6[nH]ccc56)nc4C(N)=O)cc3F)CC2)CC1 [compound 536] | – | > 50 | – | – | +++ (+++ indicates an inhibition greater than 50%.) |
| CC(C)Nc1nc(Nc2ccc(N3CCC(N4CCN(C)CC4)CC3)cc2)c(C(N)=O)nc1-c1cc[nH]n1 [compound 616] | 32 | – | – | 360 | +++ (+++ indicates an inhibition greater than 50%.) |
